Measured values: ChEMBL document CHEMBL1949621, “Fluorocyclines. 1. 7-fluoro-9-pyrrolidinoacetamido-6-demethyl-6-deoxytetracycline: a potent, broad spectrum antibacterial agent” (J Med Chem, 2012)
Values after ≈ are worked out from the molar mass of the structure shown.

Columns and labels:
Type in all cases: functional
Staphylococcus aureus [1] = test: Antibacterial activity against Staphylococcus aureus ATCC 101 29213
Staphylococcus aureus [2] = test: Antibacterial activity against tetracycline- and methicillin-resistant Staphylococcus aureus 161
Staphylococcus aureus [3] = test: microbe, parasite or virus in culture; conditions: 158
Enterococcus faecalis [4] = test: Antibacterial activity against Enterococcus faecalis ATCC 103 29212
Enterococcus faecalis [5] = test: Antibacterial activity against tetracycline-resistant Enterococcus faecalis 159
Streptococcus pneumoniae [6] = test: microbe, parasite or virus in culture; conditions: ATCC 106 49619
Description: Antibacterial activity against Streptococcus pneumoniae ATCC 106 49619

Streptococcus pneumoniae [7] = test: Antibacterial activity against tetracycline-resistant Streptococcus pneumoniae 160
Escherichia coli [8] = test: Antibacterial activity against Escherichia coli ATCC 107 25922
Escherichia coli [9] = test: Antibacterial activity against tetracycline-resistant Escherichia coli 155
Acinetobacter baumannii = test: Antibacterial activity against Acinetobacter baumannii ATCC 19606 110
Pseudomonas aeruginosa = test: Antibacterial activity against Pseudomonas aeruginosa ATCC 111 27853
Enterobacter cloacae = test: Antibacterial activity against Enterobacter cloacae ATCC 108 13047
Klebsiella pneumoniae [10] = test: Antibacterial activity against Klebsiella pneumoniae ATCC 109 13883
Klebsiella pneumoniae [11] = test: Antibacterial activity against tetracycline-resistant Klebsiella pneumoniae 153

CN(C)[C@@H]1C(O)=C(C(N)=O)C(=O)[C@@]2(O)C(O)=C3C(=O)c4c(O)c(NC(=O)CN5CC[C@H](F)C5)cc(F)c4C[C@H]3C[C@@H]12 gave an MIC (Staphylococcus aureus [1]) of 0.25 µg/mL (≈ 0.434 µM), an MIC (Staphylococcus aureus [2]) of 0.5 µg/mL (≈ 0.867 µM) and an MIC (Staphylococcus aureus [3]) of 1 µg/mL (≈ 1.73 µM). For the same compound, the MIC (Enterococcus faecalis [4]) was 0.25 µg/mL (≈ 0.434 µM), the MIC (Enterococcus faecalis [5]) was 0.25 µg/mL (≈ 0.434 µM) and the MIC (Streptococcus pneumoniae [6]) was 0.0156 µg/mL (≈ 0.0271 µM). The MIC (Streptococcus pneumoniae [7]) was 0.0156 µg/mL (≈ 0.0271 µM), the MIC (Escherichia coli [8]) was 2 µg/mL (≈ 3.47 µM) and the MIC (Escherichia coli [9]) was 32 µg/mL (≈ 55.5 µM). It also gave an MIC (Acinetobacter baumannii) of 0.125 µg/mL (≈ 0.217 µM), an MIC (Pseudomonas aeruginosa) of over 32 µg/mL and an MIC (Enterobacter cloacae) of 4 µg/mL (≈ 6.94 µM). The MIC (Klebsiella pneumoniae [10]) was 4 µg/mL (≈ 6.94 µM) and the MIC (Klebsiella pneumoniae [11]) was 32 µg/mL (≈ 55.5 µM).

For CN(C)[C@@H]1CCN(CC(=O)Nc2cc(F)c3c(c2O)C(=O)C2=C(O)[C@]4(O)C(=O)C(C(N)=O)=C(O)[C@@H](N(C)C)[C@@H]4C[C@@H]2C3)C1, the MIC (Staphylococcus aureus [1]) was 8 µg/mL (≈ 13.3 µM), the MIC (Staphylococcus aureus [2]) was over 32 µg/mL and the MIC (Staphylococcus aureus [3]) was over 32 µg/mL. For the same compound, the MIC (Enterococcus faecalis [4]) was 16 µg/mL (≈ 26.6 µM), the MIC (Enterococcus faecalis [5]) was 16 µg/mL (≈ 26.6 µM) and the MIC (Streptococcus pneumoniae [6]) was 2 µg/mL (≈ 3.32 µM). The MIC (Streptococcus pneumoniae [7]) was 4 µg/mL (≈ 6.65 µM), the MIC (Escherichia coli [8]) was over 32 µg/mL and the MIC (Escherichia coli [9]) was over 32 µg/mL. For the same compound, the MIC (Acinetobacter baumannii) was over 32 µg/mL, the MIC (Pseudomonas aeruginosa) was over 32 µg/mL and the MIC (Enterobacter cloacae) was over 32 µg/mL. The MIC (Klebsiella pneumoniae [10]) was over 32 µg/mL and the MIC (Klebsiella pneumoniae [11]) was over 32 µg/mL.

For CN(C)[C@@H]1C(O)=C(C(N)=O)C(=O)[C@@]2(O)C(O)=C3C(=O)c4c(O)c(NC(=O)CN5CCC5)cc(F)c4C[C@H]3C[C@@H]12, the MIC (Staphylococcus aureus [1]) was 0.125 µg/mL (≈ 0.23 µM), the MIC (Staphylococcus aureus [2]) was 0.25 µg/mL (≈ 0.459 µM) and the MIC (Staphylococcus aureus [3]) was 0.5 µg/mL (≈ 0.918 µM). For the same compound, the MIC (Enterococcus faecalis [4]) was 0.0625 µg/mL (≈ 0.115 µM), the MIC (Enterococcus faecalis [5]) was 0.125 µg/mL (≈ 0.23 µM) and the MIC (Streptococcus pneumoniae [6]) was 0.0156 µg/mL (≈ 0.0286 µM). The MIC (Streptococcus pneumoniae [7]) was 0.0156 µg/mL (≈ 0.0286 µM), the MIC (Escherichia coli [8]) was 0.25 µg/mL (≈ 0.459 µM) and the MIC (Escherichia coli [9]) was 8 µg/mL (≈ 14.7 µM). The MIC (Acinetobacter baumannii) was 2 µg/mL (≈ 3.67 µM), the MIC (Pseudomonas aeruginosa) was 8 µg/mL (≈ 14.7 µM) and the MIC (Enterobacter cloacae) was 1 µg/mL (≈ 1.84 µM). The MIC (Klebsiella pneumoniae [10]) was 1 µg/mL (≈ 1.84 µM) and the MIC (Klebsiella pneumoniae [11]) was 4 µg/mL (≈ 7.35 µM).

CN(C)[C@@H]1C(O)=C(C(N)=O)C(=O)[C@@]2(O)C(O)=C3C(=O)c4c(O)c(NC(=O)CN5CC6CCCC6C5)cc(F)c4C[C@H]3C[C@@H]12 (some centres not stated) gave an MIC (Staphylococcus aureus [1]) of 0.5 µg/mL (≈ 0.835 µM), an MIC (Staphylococcus aureus [2]) of 1 µg/mL (≈ 1.67 µM) and an MIC (Staphylococcus aureus [3]) of 0.5 µg/mL (≈ 0.835 µM). For the same compound, the MIC (Enterococcus faecalis [4]) was 0.25 µg/mL (≈ 0.418 µM), the MIC (Enterococcus faecalis [5]) was 0.5 µg/mL (≈ 0.835 µM) and the MIC (Streptococcus pneumoniae [6]) was 0.125 µg/mL (≈ 0.209 µM). It also gave an MIC (Streptococcus pneumoniae [7]) of 0.06 µg/mL (≈ 0.1 µM), an MIC (Escherichia coli [8]) of 1 µg/mL (≈ 1.67 µM) and an MIC (Escherichia coli [9]) of 2 µg/mL (≈ 3.34 µM). For the same compound, the MIC (Acinetobacter baumannii) was 0.06 µg/mL (≈ 0.1 µM), the MIC (Pseudomonas aeruginosa) was over 32 µg/mL and the MIC (Enterobacter cloacae) was 4 µg/mL (≈ 6.68 µM). It also gave an MIC (Klebsiella pneumoniae [10]) of 2 µg/mL (≈ 3.34 µM) and an MIC (Klebsiella pneumoniae [11]) of 4 µg/mL (≈ 6.68 µM).

In the case of CN(C)[C@@H]1C(O)=C(C(N)=O)C(=O)[C@@]2(O)C(O)=C3C(=O)c4c(O)c(NC(=O)CNc5ccccc5)cc(F)c4C[C@H]3C[C@@H]12, the MIC (Staphylococcus aureus [1]) is reported as 2 µg/mL (≈ 3.44 µM), the MIC (Staphylococcus aureus [2]) is reported as 4 µg/mL (≈ 6.89 µM) and the MIC (Staphylococcus aureus [3]) is reported as 2 µg/mL (≈ 3.44 µM). It also gave an MIC (Enterococcus faecalis [4]) of 2 µg/mL (≈ 3.44 µM), an MIC (Enterococcus faecalis [5]) of 2 µg/mL (≈ 3.44 µM) and an MIC (Streptococcus pneumoniae [6]) of 2 µg/mL (≈ 3.44 µM). For the same compound, the MIC (Streptococcus pneumoniae [7]) was over 4 µg/mL, the MIC (Escherichia coli [8]) was over 32 µg/mL and the MIC (Escherichia coli [9]) was over 32 µg/mL. For the same compound, the MIC (Acinetobacter baumannii) was over 8 µg/mL, the MIC (Pseudomonas aeruginosa) was over 32 µg/mL and the MIC (Enterobacter cloacae) was over 32 µg/mL. The MIC (Klebsiella pneumoniae [10]) was over 32 µg/mL and the MIC (Klebsiella pneumoniae [11]) was over 32 µg/mL.

Work on CN(C)[C@@H]1C(O)=C(C(N)=O)C(=O)[C@@]2(O)C(O)=C3C(=O)c4c(O)c(NC(=O)CN5CCCCC5)cc(F)c4C[C@H]3C[C@@H]12 yielded an MIC (Staphylococcus aureus [1]) of 0.5 µg/mL (≈ 0.873 µM), an MIC (Staphylococcus aureus [2]) of 1 µg/mL (≈ 1.75 µM) and an MIC (Staphylococcus aureus [3]) of 0.5 µg/mL (≈ 0.873 µM). For the same compound, the MIC (Enterococcus faecalis [4]) was 0.25 µg/mL (≈ 0.437 µM), the MIC (Enterococcus faecalis [5]) was 0.5 µg/mL (≈ 0.873 µM) and the MIC (Streptococcus pneumoniae [6]) was 0.0156 µg/mL (≈ 0.0272 µM). The MIC (Streptococcus pneumoniae [7]) was 0.0156 µg/mL (≈ 0.0272 µM), the MIC (Escherichia coli [8]) was 1 µg/mL (≈ 1.75 µM) and the MIC (Escherichia coli [9]) was 4 µg/mL (≈ 6.99 µM). For the same compound, the MIC (Acinetobacter baumannii) was 0.125 µg/mL (≈ 0.218 µM), the MIC (Pseudomonas aeruginosa) was 32 µg/mL (≈ 55.9 µM) and the MIC (Enterobacter cloacae) was 4 µg/mL (≈ 6.99 µM). The MIC (Klebsiella pneumoniae [10]) was 2 µg/mL (≈ 3.49 µM) and the MIC (Klebsiella pneumoniae [11]) was 4 µg/mL (≈ 6.99 µM).

Work on CN(C)[C@@H]1C(O)=C(C(N)=O)C(=O)[C@@]2(O)C(O)=C3C(=O)c4c(O)c(NC(=O)CN5CC[C@@H](F)C5)cc(F)c4C[C@H]3C[C@@H]12 yielded an MIC (Staphylococcus aureus [1]) of 0.25 µg/mL (≈ 0.434 µM), an MIC (Staphylococcus aureus [2]) of 0.5 µg/mL (≈ 0.867 µM) and an MIC (Staphylococcus aureus [3]) of 0.5 µg/mL (≈ 0.867 µM). It also gave an MIC (Enterococcus faecalis [4]) of 0.125 µg/mL (≈ 0.217 µM), an MIC (Enterococcus faecalis [5]) of 0.25 µg/mL (≈ 0.434 µM) and an MIC (Streptococcus pneumoniae [6]) of 0.0156 µg/mL (≈ 0.0271 µM). The MIC (Streptococcus pneumoniae [7]) was 0.0156 µg/mL (≈ 0.0271 µM), the MIC (Escherichia coli [8]) was 1 µg/mL (≈ 1.73 µM) and the MIC (Escherichia coli [9]) was 16 µg/mL (≈ 27.8 µM). The MIC (Acinetobacter baumannii) was 0.25 µg/mL (≈ 0.434 µM), the MIC (Pseudomonas aeruginosa) was over 32 µg/mL and the MIC (Enterobacter cloacae) was 8 µg/mL (≈ 13.9 µM). It also gave an MIC (Klebsiella pneumoniae [10]) of 4 µg/mL (≈ 6.94 µM) and an MIC (Klebsiella pneumoniae [11]) of 8 µg/mL (≈ 13.9 µM).

Compound COCCNCC(=O)Nc1cc(F)c2c(c1O)C(=O)C1=C(O)[C@]3(O)C(=O)C(C(N)=O)=C(O)[C@@H](N(C)C)[C@@H]3C[C@@H]1C2 has an MIC (Staphylococcus aureus [1]) of 0.25 µg/mL (≈ 0.444 µM), an MIC (Staphylococcus aureus [2]) of 0.5 µg/mL (≈ 0.889 µM) and an MIC (Staphylococcus aureus [3]) of 4 µg/mL (≈ 7.11 µM). It also gave an MIC (Enterococcus faecalis [4]) of 0.125 µg/mL (≈ 0.222 µM), an MIC (Enterococcus faecalis [5]) of 1 µg/mL (≈ 1.78 µM) and an MIC (Streptococcus pneumoniae [6]) of 0.0156 µg/mL (≈ 0.0277 µM). It also gave an MIC (Streptococcus pneumoniae [7]) of 0.0625 µg/mL (≈ 0.111 µM), an MIC (Escherichia coli [8]) of 1 µg/mL (≈ 1.78 µM) and an MIC (Escherichia coli [9]) of 16 µg/mL (≈ 28.4 µM). It also gave an MIC (Acinetobacter baumannii) of 2 µg/mL (≈ 3.56 µM), an MIC (Pseudomonas aeruginosa) of 16 µg/mL (≈ 28.4 µM) and an MIC (Enterobacter cloacae) of 4 µg/mL (≈ 7.11 µM). The MIC (Klebsiella pneumoniae [10]) was 2 µg/mL (≈ 3.56 µM) and the MIC (Klebsiella pneumoniae [11]) was 8 µg/mL (≈ 14.2 µM).
